Measured values published in patent US12509449B2, “Anthelmintic compounds comprising a quinoline structure” (Intervet Inc., priority 2019, dated 2025).

Tests used:
[1] = target: T1, human Maxi K channel (BK channel), KCNMA1 (KCa1.1) and beta1 (KCNMB1) subunits (Homo sapiens, UniProt Q12791); experiment: Agonistic activity at the human Maxi K channel (BK channel), membrane potential (FLIPR) in transfected CHO K1 cells; assay type: cell-based; conditions: membrane potential dye, 70 mM KCl
T1 construct: expressed in transfected cells; host or cells: CHO K1
T1 sequence (Q12791 1-1178 isoform Q12791-5): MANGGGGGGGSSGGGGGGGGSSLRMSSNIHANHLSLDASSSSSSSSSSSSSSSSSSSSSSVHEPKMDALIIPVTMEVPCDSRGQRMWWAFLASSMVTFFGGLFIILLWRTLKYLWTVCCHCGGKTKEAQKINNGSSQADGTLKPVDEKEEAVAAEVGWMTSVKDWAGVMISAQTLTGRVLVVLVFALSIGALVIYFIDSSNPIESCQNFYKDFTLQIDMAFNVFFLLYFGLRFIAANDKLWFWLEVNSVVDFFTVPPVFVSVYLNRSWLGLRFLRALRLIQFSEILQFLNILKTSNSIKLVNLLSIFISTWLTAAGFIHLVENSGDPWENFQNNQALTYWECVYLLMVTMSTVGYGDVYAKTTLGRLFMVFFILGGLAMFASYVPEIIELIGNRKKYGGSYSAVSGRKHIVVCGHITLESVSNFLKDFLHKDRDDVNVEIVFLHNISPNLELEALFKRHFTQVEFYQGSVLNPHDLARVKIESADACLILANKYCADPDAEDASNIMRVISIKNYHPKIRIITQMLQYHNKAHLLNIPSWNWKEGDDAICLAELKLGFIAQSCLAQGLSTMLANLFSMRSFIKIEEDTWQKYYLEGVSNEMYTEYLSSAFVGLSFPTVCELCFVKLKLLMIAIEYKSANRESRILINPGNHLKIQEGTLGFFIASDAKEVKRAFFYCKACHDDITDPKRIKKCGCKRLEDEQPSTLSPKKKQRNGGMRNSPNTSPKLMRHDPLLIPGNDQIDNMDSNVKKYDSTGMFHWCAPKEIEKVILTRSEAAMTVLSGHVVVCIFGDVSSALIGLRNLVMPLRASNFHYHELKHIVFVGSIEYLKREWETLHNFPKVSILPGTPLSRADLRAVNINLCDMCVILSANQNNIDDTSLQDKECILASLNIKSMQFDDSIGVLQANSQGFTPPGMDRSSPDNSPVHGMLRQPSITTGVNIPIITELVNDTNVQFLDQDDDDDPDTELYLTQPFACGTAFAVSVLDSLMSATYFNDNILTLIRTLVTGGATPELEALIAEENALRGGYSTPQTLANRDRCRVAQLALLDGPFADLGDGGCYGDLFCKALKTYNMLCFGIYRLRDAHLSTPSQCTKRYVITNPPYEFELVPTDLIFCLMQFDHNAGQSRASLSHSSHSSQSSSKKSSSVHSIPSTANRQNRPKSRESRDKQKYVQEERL
T1 sequence (Q16558 whole entry partner): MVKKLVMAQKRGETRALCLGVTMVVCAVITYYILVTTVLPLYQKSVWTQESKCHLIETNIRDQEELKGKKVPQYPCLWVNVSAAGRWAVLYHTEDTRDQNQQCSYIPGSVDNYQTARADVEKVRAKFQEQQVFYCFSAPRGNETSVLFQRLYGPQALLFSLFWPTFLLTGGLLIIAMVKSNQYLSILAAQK
Description: A CHO K1 cell line was stably transfected with the KCNMA1 (KCa1.1, U11058) and beta1 (KCNMB1) subunits of the human Maxi K channel (Ponte et al, Molecular Pharmacology 2012, 81(4), 567-577).
The complete measurement takes 150 s.

[2] = test system: Ascaridia galli L3; experiment: In vitro assay Ascaridia galli larval stage 3, minimum effective concentration; assay type: cell-based; conditions: 20 larvae per well, microscopic examination, read-out: MEC (minimum effective concentration) against Ascaridia galli L3
Description: (§1) […] galli (intestinal roundworm of chicken), larval stage 3 (“L3”); and Oesophagostumum dentatum (nodular worm of swine), larval stages 3 and 4 (respectively “L3” and “L4”) where suspended in a nutrient medium and distributed to 96 well plates with 20 larvae per well. The wells were spiked DMSO solutions of the compounds with declining concentration.

[3] = test system: Oesophagostumum dentatum L4; experiment: In vitro assay Oesophagostumum dentatum larval stage 4, minimum effective concentration; assay type: cell-based; conditions: 20 larvae per well, microscopic examination; read-out: MEC (minimum effective concentration) against Oesophagostumum dentatum L4
Description: as §1

[4] = target: Caenorhabditis elegans slo-1a (Caenorhabditis elegans, UniProt Q95V25); experiment: Agonistic activity at C. elegans Slo-1a, membrane potential (FLIPR) in transfected CHO K1 cells; conditions: EC50 agonistic activity at C. elegans Slo-1a, membrane potential dye, 70 mM KCl
Caenorhabditis elegans slo-1a, sequence (Q95V25 whole entry): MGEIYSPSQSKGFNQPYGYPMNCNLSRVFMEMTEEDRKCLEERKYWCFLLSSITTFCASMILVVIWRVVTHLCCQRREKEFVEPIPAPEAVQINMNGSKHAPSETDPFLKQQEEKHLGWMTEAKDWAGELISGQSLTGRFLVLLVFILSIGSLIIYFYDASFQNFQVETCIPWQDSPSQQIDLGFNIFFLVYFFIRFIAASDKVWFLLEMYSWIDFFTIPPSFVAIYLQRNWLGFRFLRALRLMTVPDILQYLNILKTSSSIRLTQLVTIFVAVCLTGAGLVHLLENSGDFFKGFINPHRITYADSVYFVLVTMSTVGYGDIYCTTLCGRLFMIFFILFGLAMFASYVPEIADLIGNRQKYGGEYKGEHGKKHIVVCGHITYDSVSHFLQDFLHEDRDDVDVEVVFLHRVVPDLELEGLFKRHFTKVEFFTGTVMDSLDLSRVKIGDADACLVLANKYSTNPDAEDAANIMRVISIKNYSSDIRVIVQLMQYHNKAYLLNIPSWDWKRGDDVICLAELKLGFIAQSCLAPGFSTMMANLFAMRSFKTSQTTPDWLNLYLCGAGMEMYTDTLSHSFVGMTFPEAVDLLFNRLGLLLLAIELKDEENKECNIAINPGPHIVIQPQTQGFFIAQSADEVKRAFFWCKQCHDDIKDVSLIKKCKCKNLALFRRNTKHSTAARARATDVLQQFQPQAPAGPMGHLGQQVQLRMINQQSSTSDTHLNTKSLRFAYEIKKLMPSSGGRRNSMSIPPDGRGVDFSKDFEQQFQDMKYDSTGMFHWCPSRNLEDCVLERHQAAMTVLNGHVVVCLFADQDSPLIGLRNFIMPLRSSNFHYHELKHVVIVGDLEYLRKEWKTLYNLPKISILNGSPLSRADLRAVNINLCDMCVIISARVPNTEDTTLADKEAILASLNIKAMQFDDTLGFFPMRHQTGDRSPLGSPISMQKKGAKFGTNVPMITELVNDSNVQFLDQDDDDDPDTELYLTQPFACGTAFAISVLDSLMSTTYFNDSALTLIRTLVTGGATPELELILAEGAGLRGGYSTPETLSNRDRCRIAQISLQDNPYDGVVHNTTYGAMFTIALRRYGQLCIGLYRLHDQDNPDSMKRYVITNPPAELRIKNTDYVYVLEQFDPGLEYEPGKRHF
Description: A CHO K1 cell line stably transfected with the Caenorhabditis elegans slo-1a (accession no Y51A2D.19a) was established. Cells were seeded in microtiter plates (black 384-well MTP, clear bottom) in a concentration of 10,000 cells/well in 25 μl medium and cultured for 20 to 24 hours at 37° C. and 5% CO2. The cell medium was removed, and the cells washed with Tyrode's solution. 1 of FMP-dye Blue-Tyrode's was added to each well and incubated at room temperature for 30 min.
For the membrane potential measurements, the prepared cell plate and substance plate were placed in the FLIPR Tetra (Molecular Devices). The baseline measurement of the fluorescence was stared for 20 sec (Exc. 510-545 nm, Emm. 565-625 nm). The cells were depolarized by addition of 25p of the diluted test compounds (final assay concentration of the KCl-Tyrode: 70 mM KCl, 2 mM CaCl2), 1 mM MgCl2, 0.8 mM NaH2PO4, 5 mM Glucose, 28 mM Hepes, pH 7.4, including the voltage sensitive dye). The complete measurement takes 150 s.
EC50 values were determined in triplicate utilizing compound dilution series. The data were determined at least in two independent tests. The data were proceeded by using the ActivityBase XE Runner software (IDBS) for curve fitting and calculation of the half-maximal effective concentration.

[5] = test system: Haemonchus contortus; experiment: In vitro assay Haemonchus contortus exsheathed L3 larvae motility; assay type: cell-based; conditions: 168 h, incubation 7 days, automated microscopy, read-out: ED50 against Haemonchus contortus (motility reduced by 50%)
Description: Solutions of compounds with declining concentrations in DMSO were prepared, diluted with nutrient medium and distributed to 96 well microtiterplates. […]3 larvae of Haemonchus contortus were incubated for 20 min at 37° C. in a water bath, separated by centrifugation and added to the wells with 300 Larvae/well. After incubation for 7 days motility was assessed by automated microscopy. Ivermectin was used as positive control, DMSO as negative control and ED50 values were calculated which represent the concentration for an individual compound that reduces motility by 50% with respect to the […].

[6] = test system: Oesophagostumum dentatum L3; experiment: In vitro assay Oesophagostumum dentatum larval stage 3, minimum effective concentration; assay type: cell-based; conditions: 20 larvae per well, microscopic examination; read-out: MEC (minimum effective concentration) against Oesophagostumum dentatum L3
Description: as §1

Compound: O=C(Nc1cnc2c(-c3cccc(Cl)c3Cl)cccc2c1N1CCC(O)C1)C1CCc2ccccc21 (stereo not shown) [Compound 45]
- EC50 [1]: 10 to 30 µM
- minimal effective concentration [2]: ≤ 50 µM
- minimal effective concentration [3]: ≤ 50 µM
- EC50 [4]: < 1 µM

Compound: O=C(Nc1cnc2c(-c3cc(Cl)cc(Cl)c3)c(F)ccc2c1N1CCOCC1)C1CCCc2ccccc21 (stereo not shown) [Compound 116]
- EC50 [1]: > 30 µM
- EC50 [5]: < 50 µM
- minimal effective concentration [2]: ≤ 50 µM
- EC50 [4]: < 1 µM

Compound: O=C(Nc1cnc2c(-c3cc(Cl)cc(Cl)c3)cccc2c1N1CCOCC1)C1CCCc2ccccc21 (stereo not shown) [Compound 8]
- EC50 [1]: 10 to 30 µM
- EC50 [5]: < 50 µM
- EC50 [4]: < 1 µM

Compound: CN(C(=O)C1CCOc2ccccc21)c1cnc2c(-c3cccc(Cl)c3Cl)cccc2c1N1CCOCC1 (stereo not shown) [Compound 158]
- minimal effective concentration [6]: ≤ 50 µM
- EC50 [1]: > 30 µM
- minimal effective concentration [3]: ≤ 50 µM

Compound: O=C(Nc1cnc2c(-c3cccc(Cl)c3Cl)cccc2c1N1CCCC1)C1CCc2ccccc21 (stereo not shown) [Compound 18]
- EC50 [1]: > 30 µM
- minimal effective concentration [2]: ≤ 50 µM
- minimal effective concentration [3]: ≤ 50 µM

Compound: CN(C)c1c(NC(=O)C2CCOc3ccccc32)cnc2c(-c3cccc(Cl)c3F)cccc12 (stereo not shown) [Compound 42]
- EC50 [1]: > 30 µM
- EC50 [5]: < 50 µM
- EC50 [4]: < 1 µM

Compound: O=C(Nc1cnc2c(-c3cccc(Cl)c3Cl)cccc2c1N1CCC(O)C1)C1CCOc2ccccc21 (stereo not shown) [Compound 37]
- EC50 [1]: 10 to 30 µM
- minimal effective concentration [2]: ≤ 50 µM
- minimal effective concentration [3]: ≤ 50 µM
- EC50 [4]: < 1 µM

Compound: CCOc1c(NC(=O)C2CCCc3ccccc32)cnc2c(-c3cc(Cl)cc(Cl)c3)cccc12 (stereo not shown) [Compound 75]
- minimal effective concentration [6]: ≤ 50 µM
- EC50 [1]: > 30 µM
- minimal effective concentration [2]: ≤ 50 µM
- EC50 [4]: < 1 µM

Compound: CCOc1c(NC(=O)C2CCc3ccccc32)cnc2c(-c3cc(Cl)cc(Cl)c3)cccc12 (stereo not shown) [Compound 79]
- minimal effective concentration [6]: ≤ 50 µM
- EC50 [1]: > 30 µM
- EC50 [5]: < 50 µM
- minimal effective concentration [2]: ≤ 50 µM
- EC50 [4]: < 10 µM

Compound: CN(C)c1c(NC(=O)[C@H]2CCCc3ccccc32)cnc2c(-c3cc(Cl)cc(Cl)c3)cccc12 [Compound 156]
- EC50 [1]: > 30 µM
- EC50 [5]: < 50 µM
- EC50 [4]: < 1 µM

Compound: CN(C)c1cccc(CC(=O)Nc2cnc3c(-c4cccc(Cl)c4Cl)cccc3c2N(C)C)c1 [Compound 49]
- EC50 [1]: > 30 µM
- minimal effective concentration [3]: ≤ 50 µM
- EC50 [4]: < 10 µM

Compound: CC(C(=O)Nc1cnc2c(-c3cccc(Cl)c3Cl)cccc2c1N(C)C)c1ccccc1 (stereo not shown) [Compound 24]
- minimal effective concentration [6]: ≤ 50 µM
- EC50 [1]: > 30 µM
- EC50 [5]: < 50 µM
- minimal effective concentration [2]: ≤ 50 µM
- EC50 [4]: < 10 µM

Compound: CCNc1c(NC(=O)C2CCOc3ccccc32)cnc2c(-c3cccc(Cl)c3Cl)cccc12 (stereo not shown) [Compound 86]
- EC50 [1]: > 30 µM
- EC50 [5]: < 50 µM
- minimal effective concentration [2]: ≤ 50 µM

Compound: C=C(C)c1c(NC(=O)C2CCc3ccccc32)cnc2c(-c3cccc(Cl)c3Cl)cccc12 (stereo not shown) [Compound 201]
- minimal effective concentration [6]: ≤ 50 µM
- EC50 [1]: > 30 µM
- minimal effective concentration [2]: ≤ 50 µM
- EC50 [4]: < 1 µM

Compound: CN(C)c1c(NC(=O)c2cccc3ccccc23)cnc2c(-c3cc(Cl)cc(Cl)c3)c(F)ccc12 [Compound 145]
- EC50 [1]: > 30 µM
- EC50 [5]: < 50 µM
- EC50 [4]: < 1 µM

Compound: CN(C)c1c(NC(=O)Cc2ccccc2)cnc2c(-c3cccc(Cl)c3Cl)cccc12 [Compound 1]
- minimal effective concentration [6]: ≤ 50 µM
- EC50 [1]: > 30 µM
- minimal effective concentration [2]: ≤ 50 µM
- EC50 [4]: < 10 µM

Compound: CN(CCO)c1c(NC(=O)C2CCOc3ccccc32)cnc2c(-c3cccc(Cl)c3Cl)cccc12 (stereo not shown) [Compound 92]
- EC50 [1]: > 30 µM
- minimal effective concentration [3]: ≤ 50 µM
- EC50 [4]: < 10 µM

Compound: Cc1c(NC(=O)C2CCCc3ccccc32)cnc2c(-c3cc(Cl)cc(Cl)c3)cccc12 (stereo not shown) [Compound 192]
- EC50 [1]: > 30 µM
- minimal effective concentration [3]: ≤ 50 µM
- EC50 [4]: < 10 µM

Compound: CN(C)c1c(NC(=O)c2cccc3ccccc23)cnc2c(-c3cccc(Cl)c3Cl)cccc12 [Compound 31]
- EC50 [1]: > 30 µM
- EC50 [5]: < 50 µM
- EC50 [4]: < 1 µM
